Changes are numbered by the printed parent chain.
Key:
Type in all cases: cell-based
[1] = molecular target: T1, GPR139 E108A3x29 +E105A3x32 (Homo sapiens, UniProt Q6DWJ6, E105A/E108A); test: Fluo-4 Ca2+-assay, GPR139 double mutant E105A_E108A
T1 construct: mGluR5 signal peptide (N); expressed in transfected cells; host or cells: HEK293
T1 sequence (Q6DWJ6 2-353 E105A/E108A limits assumed): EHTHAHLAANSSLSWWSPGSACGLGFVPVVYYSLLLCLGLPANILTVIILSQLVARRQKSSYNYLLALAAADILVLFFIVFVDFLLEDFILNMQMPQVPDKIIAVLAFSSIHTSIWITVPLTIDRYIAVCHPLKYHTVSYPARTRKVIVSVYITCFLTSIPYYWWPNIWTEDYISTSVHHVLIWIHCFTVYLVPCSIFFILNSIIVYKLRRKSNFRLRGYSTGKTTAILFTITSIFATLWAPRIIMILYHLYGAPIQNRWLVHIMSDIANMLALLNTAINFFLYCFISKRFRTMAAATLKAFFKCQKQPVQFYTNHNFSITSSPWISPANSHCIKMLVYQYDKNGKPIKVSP
Text: (§1) To study the influence of specific amino acids in the predicted binding pocket on receptor function, the desired mutations were introduced into an N-terminally c-myc-tagged wild type human GPR139 (NM_001002911.3) in the pEGFP-N1 vector (BD Biosciences)[32], [33]. As previously described, these plasmids carry the signal peptide of mGluR5 to promote cell surface expression followed by a c-myc epitope to enable detection of total and surface expression by ELISA, followed by an engineered MluI and NotI site for easy insertion of the receptor of interest. Furthermore, the start-codon in the GPR139 sequence was deleted to ensure c-myc-tagging. […]
(§2) The Ca^2+ measurements were preformed using the Fluo-4 NW Calcium Assay Kit (Invitrogen, Molecular Probes, F36206) as previously described. […] Intracellular calcium changes were recorded as indicated on either a NOVOstar (BMG Labtech) at 37 °C with an excitation filter of 485 nm and an emission filters 520 nm or a FlexStation 3 Benchtop Multi-Mode Microplate Reader (Molecular Devices) at 37 °C with an excitation wavelength of 485 nm and emission of 525 nm.
(§3) All pharmacological data have been analyzed by using Prism 6.0 (GraphPad Software Inc., San Diego). […] Changes in potency (pEC50) and span of myc-GPR139(WT) in comparison to untagged GPR139(WT) was statistically analyzed with a paired t-test and significance was accepted at p < 0.05. […]

GPR139 H113A3x37 = molecular target: T2, GPR139 H113A3x37 (Homo sapiens, UniProt Q6DWJ6, H113A); test: Fluo-4 Ca2+-assay, GPR139 mutant H113A
T2 construct: mGluR5 signal peptide (N); expressed in transfected cells; host or cells: HEK293
T2 sequence (Q6DWJ6 2-353 H113A limits assumed): T1 sequence (Q6DWJ6 2-353 E105A/E108A limits assumed) with A104E, A107E, H112A
Text: as §1, §2, §3

GPR139 L87A2x64 = molecular target: T3, GPR139 L87A2x64 (Homo sapiens, UniProt Q6DWJ6, L87A); test: Fluo-4 Ca2+-assay, GPR139 mutant L87A
T3 construct: mGluR5 signal peptide (N); expressed in transfected cells; host or cells: HEK293
T3 sequence (Q6DWJ6 2-353 L87A limits assumed): T1 sequence (Q6DWJ6 2-353 E105A/E108A limits assumed) with L86A, A104E, A107E
Text: To study the influence of specific amino acids in the predicted binding pocket on receptor function, the desired mutations were introduced into an N-terminally c-myc-tagged wild type human GPR139 (NM_001002911.3) in the pEGFP-N1 vector (BD Biosciences)[32], [33]. As previously described, these plasmids carry the signal peptide of mGluR5 to promote cell surface expression followed by a c-myc epitope to enable detection of total and surface expression by ELISA, followed by an engineered MluI and NotI site for easy insertion of the receptor of interest. Furthermore, the start-codon in the GPR139 sequence was deleted to ensure c-myc-tagging. Mutagenesis was designed in Serial Cloner 2.6 (© Franck Perez [SerialBasics]) and carried out by GenScript (USA). All mutated residues are illustrated in Supplementary Fig. 1b. An untagged GPR139(WT) in pEGFP-N1 was also generated to ensure that the c-myc-tag had no influence on GPR139(WT) function.
All GPR139 mutants were transfected into HEK293 cells. The HEK293 cells were grown in Dulbecco’s modified Eagle’s medium (DMEM) (Gibco, 41965) supplemented with 10% dialyzed fetal bovine serum (Gibco, 26400, United States origin), 100 units/mL penicillin and 100 μg/mL streptomycin (Gibco, 15140). HEK293 cells were reverse transfected using Lipofectamine2000 (Invitrogen). […]
as §2, §3

- EC50 [1]: 200 nM
- Emax ([1]; normalized to buffer (0%) and 8 µM 1a (100%)): 196 ± 25%
- EC50 (GPR139 H113A3x37; H113A mutant): 851 nM
- Emax (GPR139 H113A3x37; H113A, normalized to buffer (0%) and 8 µM 1a (100%)): 97 ± 9%
- EC50 (GPR139 L87A2x64; L87A mutant): 479 nM
- change of potency (GPR139 L87A2x64; L87A mutant versus WT (reduced surface expression)): equipotent
- Emax (GPR139 L87A2x64; L87A, normalized to buffer (0%) and 8 µM 1a (100%)): 75 ± 17%
SMILES: COc1cc(OC)cc(C(=O)NNC(=O)Nc2cccc3ccccc23)c1 [Compound 1a]
